Data published in patent US20110280865A1, “Ets-2 Biomarkers for Fibrotic Diseases and Uses Thereof” (THE OHIO STATE UNIVERSITY, priority 2009, published 2011).

System: ets-2 (WT/WT) and ets-2 (A72/A72) mice
Experiment: Bronchoalveolar lavage (BAL) cell differentials after intra-peritoneal bleomycin
Assay type: in vivo, mouse
Conditions: mean ± S.E.M.
Experimental: Mice: Transgenic mice harboring a point mutation in Ets2 [Ets2tmA720sh, referred to as Ets2 (A72/A72)] resulting in a threonine to alanine conversion at position 72 were used. Wild type littermates (FVB/N background) were used as controls.
Bleomycin studies: Male mice, aged 6-12 weeks, underwent intra-peritoneal (IP) injection. Briefly, mice were injected with 0.035 U bleomycin/g or PBS (vehicle control) on days 1, 4, 8, 11, 15, 18, 22, and 25. One week following the last injection, mice were sacrificed. Prior to removal, lungs were lavaged with 1.0 ml of PBS. Lungs were subsequently removed and inflated at 20 cm pressure. The left lobe of the lung was placed in 10% Formalin and prepared for immunohistochemical processing (Histotechniques, Powell, Ohio), and the right lobes were snap frozen in liquid nitrogen for RNA, collagen, and protein analyses.
Bronchoalveolar lavage (BAL) analysis: Following the bleomycin regimen (33 days), two instillations of 0.5 ml of PBS were performed, and the BAL fluid (BALF) was collected. The total number of cells isolated via BAL was calculated. BAL fluid was then centrifuged to pellet the cells, and the supernatant (BALF) was collected and stored for ELISA analyses. Cells were resuspended in 100 μl of PBS, cytospun on slides, stained, and analyzed under a microscope for cell differentials.

[1] = ets-2 (A72/A72) mice, n = 7, 0.035 U bleomycin/g IP
[2] = ets-2 (WT/WT) mice, n = 5, 0.035 U bleomycin/g IP

Q: What does the source list for bleomycin?
A: Alveolar Macrophages [1]: 6.8 ± 1.4 ×10^4; Lymphocytes [1]: 0.7 ± 0.6 ×10^4; Neutrophils [1]: 0.8 ± 0.6 ×10^4; Total cells [1]: 8.3 ± 2.0 ×10^4; Alveolar Macrophages [2]: 12.0 ± 2.3 $ ×10^4; Lymphocytes [2]: 0 ×10^4; Neutrophils [2]: 0 ×10^4; Total cells [2]: 12.0 ± 2.3 # ×10^4
